Assay results from ChEMBL document CHEMBL1136143, “Synthesis and activity of novel benzoxazole derivatives of mannopeptimycin glycopeptide antibiotics” (2003).
Converted amounts (≈) assume the structure as drawn.

Tests used:
Enterococcus sp. = test: In vitro minimum inhibitory concentration against Enterococcus species (11 strains, including VRE); assay type: functional
Enterococcus faecium [1] = test: In vitro minimum inhibitory concentration against vancomycin-resistant Enterococcus faecium (GC 2243); assay type: functional
Enterococcus faecium [2] = test: In vitro minimum inhibitory concentration against vancomycin-resistant Enterococcus faecium (GC 4558); assay type: functional
Enterococcus faecium [3] = test: In vitro minimum inhibitory concentration against vancomycin-susceptible Enterococcus faecium (GC 4556); assay type: functional
Enterococcus faecium [4] = test: In vitro minimum inhibitory concentration against vancomycin-susceptible Enterococcus faecium (GC 4557); assay type: functional
Enterococcus faecalis [5] = test: In vitro minimum inhibitory concentration against vancomycin-susceptible Enterococcus faecalis (GC 4555); assay type: functional
Enterococcus faecalis [6] = test: In vitro minimum inhibitory concentration against vancomycin-resistant Enterococcus faecalis (GC 2242); assay type: functional
Enterococcus faecalis [7] = test: In vitro minimum inhibitory concentration against vancomycin-resistant Enterococcus faecalis (GC 3059); assay type: functional
Enterococcus faecalis [8] = test: In vitro minimum inhibitory concentration against vancomycin-resistant Enterococcus faecalis (GC 6189); assay type: functional
Enterococcus faecalis [9] = test: In vitro minimum inhibitory concentration against vancomycin-susceptible Enterococcus faecalis (GC 2691); assay type: functional
Enterococcus faecalis [10] = test: In vitro minimum inhibitory concentration against vancomycin-susceptible Enterococcus faecalis (GC 4552); assay type: functional
Enterococcus faecalis [11] = test: In vitro minimum inhibitory concentration against vancomycin-susceptible Enterococcus faecalis (GC 4553); assay type: functional
Micrococcus luteus = test: In vitro minimum inhibitory concentration against Micrococcus lutea (GC 4562); assay type: functional
Staphylococcus aureus [12] = test: In vitro minimum inhibitory concentration against Staphylococcus aureus (10strains, including MRSA); assay type: functional
Staphylococcus aureus [13] = test: In vitro minimum inhibitory concentration against Methicillin-resistant Staphylococcus aureus (GC 1131); assay type: functional
Staphylococcus aureus [14] = test: In vitro minimum inhibitory concentration against Methicillin-resistant Staphylococcus aureus (GC 2216); assay type: functional
Staphylococcus aureus [15] = test: In vitro minimum inhibitory concentration against Methicillin-resistant Staphylococcus aureus (GC 4542); assay type: functional
Staphylococcus aureus [16] = test: In vitro minimum inhibitory concentration against Methicillin-resistant Staphylococcus aureus (GC 4543); assay type: functional
Staphylococcus aureus [17] = test: In vitro minimum inhibitory concentration against Methicillin-resistant Staphylococcus aureus(GC 4541); assay type: functional
Staphylococcus aureus [18] = test: In vitro minimum inhibitory concentration against Methicillin-resistant Staphylococcus aureus(GC 4545); assay type: functional
Staphylococcus aureus [19] = test: In vitro minimum inhibitory concentration against glycopeptide tntermediate Staphylococcus aureus (GC 3051); assay type: functional
Staphylococcus aureus [20] = test: In vitro minimum inhibitory concentration against glycopeptide tntermediate Staphylococcus aureus (GC 3066); assay type: functional
[21] = system: Staphylococcus haemolyticus; test: In vitro minimum inhibitory concentration against methicillin-resistant Coagulase-negative Staphylococci (MRCNS) (GC 4546)); assay type: functional
[22] = system: Staphylococcus haemolyticus; test: In vitro minimum inhibitory concentration against methicillin-resistant Coagulase-negative Staphylococci (MRCNS) (GC 4547)); assay type: functional
Streptococcus pneumoniae [23] = test: In vitro minimum inhibitory concentration against Penicillin resistant Streptococcus pneumoniae (GC 1894); assay type: functional
Streptococcus pneumoniae [24] = test: In vitro minimum inhibitory concentration against Penicillin susceptible Streptococcus pneumoniae (GC 6242); assay type: functional
[25] = system: Staphylococcus haemolyticus; test: In vitro minimum inhibitory concentration against methicillin-susceptible Coagulase-negative Staphylococci (MSCNS) (GC 4549)); assay type: functional
[26] = system: Staphylococcus haemolyticus; test: In vitro minimum inhibitory concentration against methicillin-susceptible Coagulase-negative Staphylococci (MSCNS) (GC 4551); assay type: functional
[27] = system: Staphylococcus haemolyticus; test: In vitro minimum inhibitory concentration against methicillin-susceptible Coagulase-negative Staphylococci (MSCNS) (GC 6257); assay type: functional
Streptococcus = test: In vitro minimum inhibitory concentration against Streptococcus Species (5 strains, including PRSP); assay type: functional
Bacillus cereus = test: In vitro minimum inhibitory concentration against Bacillus cereus (GC 4561) assay organism; assay type: functional
[28] = system: Staphylococcus haemolyticus; test: In vitro minimum inhibitory concentration against methicillin-resistant Coagulase-negative Staphylococci (MRCNS) (GC 4548)); assay type: functional
Enterococcus faecalis [29] = test: In vitro minimum inhibitory concentration against vancomycin-susceptible Enterococcus faecalis (GC 4554); assay type: functional
Staphylococcus aureus [30] = test: In vitro minimum inhibitory concentration against Methicillin-resistant Staphylococcus aureus(GC 4544); assay type: functional
Streptococcus pyogenes [31] = test: In vitro minimum inhibitory concentration against Streptococcus pyogenes (GC 4563)
Streptococcus agalactiae [32] = test: In vitro minimum inhibitory concentration against Streptococcus agalactiae (GC4564)
Streptococcus pneumoniae [33] = test: In vitro minimum inhibitory concentration against Penicillin susceptible Streptococcus pneumoniae (GC 4565)
Staphylococcus aureus [34] = test: In vitro minimum inhibitory concentration against Methicillin-susceptible Staphylococcus aureus (GC 2216); assay type: functional
Staphylococcus aureus [35] = test: In vitro minimum inhibitory concentration against Methicillin-susceptible Staphylococcus aureus (GC 4543); assay type: functional
Staphylococcus aureus [36] = test: In vitro minimum inhibitory concentration against Methicillin-susceptible Staphylococcus aureus(GC 4544); assay type: functional
Streptococcus pyogenes [37] = test: In vitro minimum inhibitory concentration against Streptococcus pyogenes (GC 4563); assay type: functional
[38] = system: Staphylococcus haemolyticus; test: In vitro minimum inhibitory concentration against methicillin-resistant Coagulase-negative Staphylococci (MRCNS) hemolyticu (GC 4546)); assay type: functional
Staphylococcus aureus [39] = test: In vitro minimum inhibitory concentration against Methicillin-susceptible Staphylococcus aureus(GC 4545); assay type: functional
Streptococcus agalactiae [40] = test: In vitro minimum inhibitory concentration against Streptococcus agalactiae (GC4564); remark: listed apart in the source
Enterococcus faecium [41] = test: In vitro minimum inhibitory concentration against vancomycin-resistant Enterococcus faecium (GC 2243)
Enterococcus faecium [42] = test: In vitro minimum inhibitory concentration against vancomycin-resistant Enterococcus faecium (GC 4558)
Enterococcus faecium [43] = test: In vitro minimum inhibitory concentration against vancomycin-susceptible Enterococcus faecium (GC 4556)
Enterococcus faecium [44] = test: In vitro minimum inhibitory concentration against vancomycin-susceptible Enterococcus faecium (GC 4557)
Streptococcus pneumoniae [45] = test: In vitro minimum inhibitory concentration against Penicillin susceptible Streptococcus pneumoniae (GC 4565); remark: listed apart in the source

Structure (SMILES) | MIC (Enterococcus sp.) [mg/L] | MIC (Enterococcus faecalis [5]) [mg/L] | MIC (Enterococcus faecalis [6]) [mg/L] | MIC (Enterococcus faecalis [7]) [mg/L] | MIC (Enterococcus faecalis [8]) [mg/L] | MIC (Enterococcus faecalis [9]) [mg/L] | MIC (Enterococcus faecalis [10]) [mg/L] | MIC (Enterococcus faecalis [11]) [mg/L] | MIC (Micrococcus luteus) [mg/L] | MIC (Staphylococcus aureus [12]) [mg/L] | MIC (Staphylococcus aureus [13]) [mg/L] | MIC (Staphylococcus aureus [15]) [mg/L] | MIC (Staphylococcus aureus [17]) [mg/L] | MIC (Staphylococcus aureus [19]) [mg/L] | MIC (Staphylococcus aureus [20]) [mg/L] | MIC [22] [mg/L] | MIC (Streptococcus pneumoniae [23]) [mg/L] | MIC (Streptococcus pneumoniae [24]) [mg/L] | MIC [25] [mg/L] | MIC [26] [mg/L] | also measured
C[C@@H](c1ccccc1)[C@@H]1NC(=O)CNC(=O)[C@H](CO)NC(=O)[C@@H]([C@@H](O)[C@@H]2CN=C(N)N2[C@H]2O[C@H](CO)[C@@H](O)[C@H](O)[C@@H]2O)NC(=O)[C@H]([C@H](O)[C@@H]2CN=C(N)N2)NC(=O)[C@@H](Cc2ccc3nc(-c4cccc(F)c4)oc3c2)NC1=O | 16 (≈ 14.7 µM) | 64 (≈ 58.7 µM) | 32 (≈ 29.4 µM) | 64 (≈ 58.7 µM) | 32 (≈ 29.4 µM) | 32 (≈ 29.4 µM) | 64 (≈ 58.7 µM) | 16 (≈ 14.7 µM) | 2 (≈ 1.83 µM) | 8 (≈ 7.34 µM) | 8 (≈ 7.34 µM) | 8 (≈ 7.34 µM) | 16 (≈ 14.7 µM) | 16 (≈ 14.7 µM) | 16 (≈ 14.7 µM) | 8 (≈ 7.34 µM) | 16 (≈ 14.7 µM) | 8 (≈ 7.34 µM) | 16 (≈ 14.7 µM) | 8 (≈ 7.34 µM) | MIC (Enterococcus faecium [1]): 32 mg/L (≈ 29.4 µM); MIC (Enterococcus faecium [2]): 16 mg/L (≈ 14.7 µM); MIC (Enterococcus faecium [3]): 64 mg/L (≈ 58.7 µM); MIC (Enterococcus faecium [4]): 8 mg/L (≈ 7.34 µM); MIC (Staphylococcus aureus [14]): 8 mg/L (≈ 7.34 µM); MIC (Staphylococcus aureus [16]): 8 mg/L (≈ 7.34 µM); MIC (Staphylococcus aureus [18]): 8 mg/L (≈ 7.34 µM); MIC [21]: 4 mg/L (≈ 3.67 µM); MIC [27]: 4 mg/L (≈ 3.67 µM); MIC (Streptococcus): 4 mg/L (≈ 3.67 µM); MIC (Bacillus cereus): 64 mg/L (≈ 58.7 µM); MIC [28]: 4 mg/L (≈ 3.67 µM); MIC (Enterococcus faecalis [29]): 64 mg/L (≈ 58.7 µM); MIC (Staphylococcus aureus [30]): 8 mg/L (≈ 7.34 µM); MIC (Streptococcus pyogenes [31]): 4 mg/L (≈ 3.67 µM); MIC (Streptococcus agalactiae [32]): 8 mg/L (≈ 7.34 µM); MIC (Streptococcus pneumoniae [33]): 16 mg/L (≈ 14.7 µM)
C[C@@H](c1ccccc1)[C@@H]1NC(=O)CNC(=O)[C@H](CO)NC(=O)[C@@H]([C@@H](O)[C@@H]2CN=C(N)N2[C@H]2O[C@H](CO)[C@@H](O)[C@H](O)[C@@H]2O)NC(=O)[C@H]([C@H](O)[C@@H]2CN=C(N)N2)NC(=O)[C@@H](Cc2ccc3nc(-c4ccc(N(C)C)cc4)oc3c2)NC1=O | 8 (≈ 7.17 µM) | 32 (≈ 28.7 µM) | 32 (≈ 28.7 µM) | 64 (≈ 57.4 µM) | 32 (≈ 28.7 µM) | 32 (≈ 28.7 µM) | 64 (≈ 57.4 µM) | 16 (≈ 14.3 µM) | 2 (≈ 1.79 µM) | 8 (≈ 7.17 µM) | 8 (≈ 7.17 µM) | 8 (≈ 7.17 µM) | 8 (≈ 7.17 µM) | 8 (≈ 7.17 µM) | 8 (≈ 7.17 µM) | 4 (≈ 3.59 µM) | 32 (≈ 28.7 µM) | 32 (≈ 28.7 µM) | 2 (≈ 1.79 µM) | 8 (≈ 7.17 µM) | MIC (Staphylococcus aureus [34]): 8 mg/L (≈ 7.17 µM); MIC (Staphylococcus aureus [35]): 8 mg/L (≈ 7.17 µM); MIC (Staphylococcus aureus [36]): 8 mg/L (≈ 7.17 µM); MIC (Streptococcus pyogenes [37]): 16 mg/L (≈ 14.3 µM); MIC [38]: 4 mg/L (≈ 3.59 µM); MIC [27]: 4 mg/L (≈ 3.59 µM); MIC (Streptococcus): 16 mg/L (≈ 14.3 µM); MIC (Bacillus cereus): 32 mg/L (≈ 28.7 µM); MIC [28]: 4 mg/L (≈ 3.59 µM); MIC (Staphylococcus aureus [39]): 8 mg/L (≈ 7.17 µM); MIC (Enterococcus faecalis [29]): 32 mg/L (≈ 28.7 µM); MIC (Streptococcus agalactiae [40]): 32 mg/L (≈ 28.7 µM); MIC (Enterococcus faecium [41]): 16 mg/L (≈ 14.3 µM); MIC (Enterococcus faecium [42]): 16 mg/L (≈ 14.3 µM); MIC (Enterococcus faecium [43]): 64 mg/L (≈ 57.4 µM); MIC (Enterococcus faecium [44]): 8 mg/L (≈ 7.17 µM); MIC (Streptococcus pneumoniae [45]): 32 mg/L (≈ 28.7 µM)
